One assay relates to diabetic skin wounds. Put plainly: Homing of FAM-peptides to skin wounds in diabetic mice. Conditions: 1.5 mg/kg systemically, 150 min, day 7 wound, anti-FAM staining, one animal with two wounds per group. It is filed as in vivo, mouse (BKS(D)-Lepr^db/JOrlRj). The text has this:
Next, we wanted to study the utility of the newly identified peptides as vehicles for targeting diabetic skin wounds. Compromised angiogenesis in diabetic wounds leads to deficient granulation tissue formation and poses an important hindrance to systemic drug delivery. BALB/cJRj and diabetic male BKS(D)-Lepr^db/JOrlRj mice were wounded and systemically dosed with fluorophore-labeled peptides 7 d after the skin wounding. For all tested peptides, we observed peptide accumulation in the granulation tissue where angiogenesis takes place (Fig S6).
Figure S6. Microdialysis-captured peptides home to skin wounds in diabetic mice. […] Full-thickness wounds 6 mm in diameter were cut in the back skin of 14-wk-old male diabetic mice. After 7 d, 1.5 mg/kg of each peptide or PBS was injected systemically. The CAR peptide was used as a control. The peptide circulated for 150 min before the vasculature was perfused. The wounds were fixed with 4% PFA in PBS, and microscopic sections were stained with anti-FAM and hematoxylin. (A) Images of entire wounds. (B) Magnifications of areas marked in (A) with anti-CD31 staining of the adjacent sections. (A, B) Scale bars are 500 μm for (A) and 125 μm for (B). Images are representative of one animal with two wounds in each group.
Male BALB/cJRj and diabetic male BKS(D)-Lepr^db/JOrlRj mice were used for the peptide homing experiment. The BALB/cJRj mice were 8 wk old and weighed 24–28 g. […]
After 24-h (or 4 h for eyeballs) fixation in 4% PFA, the tissues were rinsed in 70% EtOH and embedded in paraffin. To avoid autofluorescence, the peptides were detected by staining the sections with rabbit anti-FITC/-FAM (71-1900; Thermo Fisher Scientific, 1:400 BALB/cJRj and C57BL/6Rj or 1:100 BKS(D)-Lepr^db/JOrlRj) in Dako antibody diluent (Agilent) and Biocare Medical Rabbit on Rodent (RMR622H; Biocare Medical) with XM-Factor (XMF963C; Biocare Medical) as described previously ([Robinson et al, 2010]; [Urakami et al, 2011]; [Toba et al, 2014]; [Pemmari, et al, 2020b]). […]

The next assay concerns skin wounds. The experiment in a line: Homing of systemically administered FAM-peptides to mouse skin excision wounds and normal organs (anti-FAM staining, QuPath). It is filed as in vivo, mouse (BALB/cJRj). The note with it: for localisation in skin wound / accumulation in normal organs: tail vein, 150 min; for localisation in skin wound: anti-FAM and anti-CD31 staining; for accumulation in normal organs: normal skin, heart, liver, lung, spleen, kidney, anti-FAM staining. How it is done: We next studied homing of systemically administered CDD, CPK, and CYH peptides in mouse skin excision wounds at the peak of neovascularization, 7 d after wounding. The peptides were injected into the tail vein and allowed to circulate for 2.5 h. The systemically administered peptides were detected in the granulation tissue of the wounds outside of the blood vessels (Figs 2 and S4). […] In contrast, the peptides were undetectable in normal skin (Fig S5A), heart, liver, lung, and spleen (Fig S5B), except for strong signal related to peptide secretion from the kidney glomeruli (Fig S5B).
Figure 2. Microdialysis-captured peptides home to skin wounds and localize in granulation tissue. […] Six-mm-diameter full-thickness wounds were cut in the back skin of 8-wk-old male mice. After 7 d, the peptides or PBS was injected systemically (tail vein). The peptides were allowed to circulate for 150 min before the vasculature was thoroughly perfused. The wound tissue was fixed, and microscopic sections were stained with anti-FAM and hematoxylin. (A, B) Magnifications of areas marked in panel (A) are represented in panel (B) with adjacent sections stained with anti-CD31 to visualize the blood vessels. The scale bar is 500 μm for panel (A) and 125 μm for panel (B). Images are representative of two separate experiments, four mice in each peptide group.
Figure 3. Microdialysis-captured peptides home to skin wounds and penetrate blood–retina barrier in retinopathy. Systemically administered homing peptides CDD, CPK, and CYH accumulate in skin wounds and penetrate blood–retina barrier in retinopathy. Full-thickness wounds, 6 mm in diameter, in the back skin of 8-wk-old male mice were used. After 7 d, each peptide or PBS was injected into the tail vein. For retinopathy experiments, oxygen-induced retinopathy (OIR) was induced by placing mouse pups at day P7 in a hyperoxia chamber for 5 d. On P17, when the angiogenesis peaks in this OIR model, the peptides were injected into the tail vein. The peptides circulated for 150 min (wounds) and 120 min (OIR) before the vasculature was thoroughly perfused. The skin wounds and eyeballs were fixed, and histological samples stained with anti-FAM and hematoxylin. Peptide homing was quantified with the automated image analysis system. (A) Microdialysis-identified peptides home to skin wounds. […] (D) All three microdialysis-identified peptides also accumulate substantially in the vitreous in the OIR model. *P < 0.05, **P < 0.01, ***< 0.001. Each datapoint represents an individual wound, retina, or vitreous. N = 3 for skin wound, and N = 6 and N = 8 for normal and OIR retinas.
Male BALB/cJRj and diabetic male BKS(D)-Lepr^db/JOrlRj mice were used for the peptide homing experiment. The BALB/cJRj mice were 8 wk old and weighed 24–28 g. The BKS(D)-Lepr^db/JOrlRj mice were 14 wk old and weighed 45–58 g, and their blood sugar levels were over 33 mmol/liter. Four full-thickness circular wounds were created on a shaved and disinfected skin with a 6-mm-diameter biopsy punch and scissors under isoflurane anesthesia (Attane vet 1,000 mg/g; Piramal Critical Care B.V.) and buprenorphine analgesia (0.15 mg/kg; Vetergesic vet 0.3 mg/ml; Ceva Santé Animal). Seven days after the wounding, the homing experiment was performed. The animal use was accepted by the National Animal Ethics Committee of Finland on 12 September 2017 (ESAVI/6422/04.10.07/2017) and on 4 January 2022 (ESAVI/39175/2021).
BALB/cJRj and diabetic male BKS(D)-Lepr^db/JOrlRj mice with 7-d-old skin wounds were used for the peptide homing experiment. FAM-labeled peptides were dissolved in the PBS just before the experiment. 5 mg/kg (BALB/cJRj) or 1,5 mg/kg (BKS(D)-Lepr^db/JOrlRj) of each peptide (CAR, CDD, CPK, CYH, and a control peptide) in PBS or plain PBS (control) was injected on the tail vein under sevoflurane anesthesia. […]

On to “CDDYQQISC [FAM-labeled synthetic peptide …]”, for which, in the assay on diabetic skin wounds, the “homing to skin wounds in diabetic mice” value was “home and penetrate to the granulation tissue”. In addition, the “accumulation in skin wounds relative to a control” value in the assay with skin wounds (mouse day 7 wound, 5 mg/kg tail vein, 150 min circulation, anti-FAM positive area, N = 3) was determined as 12 fold. For the same sequence, the “localisation in skin wound” value in the assay with skin wounds (mouse day 7 wound) is “accumulated in wound regions containing blood vessels and in surrounding extravascular granulation tissue”. For the same sequence, the “accumulation in normal organs” value with skin wounds was “do not accumulate in normal, healthy organs except in the kidneys”.
“CPKKHHLDC [FAM-labeled synthetic peptide …]”: in the assay with diabetic skin wounds, the “homing to skin wounds in diabetic mice” value is “home and penetrate to the granulation tissue”. Further, the “localisation in skin wound” value in the assay on skin wounds (mouse day 7 wound) was “accumulated in wound regions containing blood vessels and in surrounding extravascular granulation tissue”. In addition, the “accumulation in normal organs” value in the assay on skin wounds is “do not accumulate in normal, healthy organs except in the kidneys”.
Regarding “CYHDTYPNC [FAM-labeled synthetic peptide …]”, the “homing to skin wounds in diabetic mice” value with diabetic skin wounds was “home and penetrate to the granulation tissue”. Further, in the assay with skin wounds (mouse day 7 wound), the “localisation in skin wound” value was “accumulated in wound regions containing blood vessels and in surrounding extravascular granulation tissue”. Besides, in the assay on skin wounds, the “accumulation in normal organs” value is listed as “do not accumulate in normal, healthy organs except in the kidneys”.
